Test system: weeds, including weed grasses
Test: herbicidal activity (general statement, no test described)
Assay type: in vivo
Conditions: in words; no rate or test printed

Cn1c(C(F)(F)F)cc(=O)n(-c2cc(O)c(Cl)cc2F)c1=O [3-(4-chloro-2-fluoro-5-hydroxyphenyl)-1-methyl-6-trifluoromethyl-2,4(1H,3H)-pyrimidinedione]
herbicidal activity: especially pronounced herbicidal activity

Reference: US4859229A, “3-Aryluracils having an ether (thio) carbomyloxy or sulphomyloxy substituent on the aromatic moiety” (Hoffmann-La Roche Inc., priority 1986, dated 1989)
